In ChEMBL document CHEMBL4257221, “Peptides comprising non-natural amino acids and methods of making and using the same” (2016):
Numbered stars: 1 amine (or outer) side, 2 acyl side, 3 side chain; on linkers, the order of the positions; unused ones are H or OH. Square brackets hold non-standard residues; d marks the D form. Peptide text beside a SMILES is read from it. ξ: configuration not given here. X1 = O=C([C@H]1CCC[C@@H]1N[*:1])[*:2]; X2 = O=C([C@H]1CNC[C@@H]1N[*:1])[*:2]; ξβ3hN = NC(=O)CC(N)CC(=O)O; ξβ3hL = CC(C)CC(N)CC(=O)O; ξβ3hK = NCCCCC(N)CC(=O)O; βAla = NCCC(=O)O

Assays:
[1] = biological target: T1, Vasoactive intestinal polypeptide receptor 1 (Homo sapiens, UniProt P32241); test: Agonist activity at human VIPR1 expressed in CHOK1 cells assessed as intracellular cAMP accumulation after 60 mins by PathHunter assay; assay type: functional, cell-based
T1 sequence (P32241 whole entry): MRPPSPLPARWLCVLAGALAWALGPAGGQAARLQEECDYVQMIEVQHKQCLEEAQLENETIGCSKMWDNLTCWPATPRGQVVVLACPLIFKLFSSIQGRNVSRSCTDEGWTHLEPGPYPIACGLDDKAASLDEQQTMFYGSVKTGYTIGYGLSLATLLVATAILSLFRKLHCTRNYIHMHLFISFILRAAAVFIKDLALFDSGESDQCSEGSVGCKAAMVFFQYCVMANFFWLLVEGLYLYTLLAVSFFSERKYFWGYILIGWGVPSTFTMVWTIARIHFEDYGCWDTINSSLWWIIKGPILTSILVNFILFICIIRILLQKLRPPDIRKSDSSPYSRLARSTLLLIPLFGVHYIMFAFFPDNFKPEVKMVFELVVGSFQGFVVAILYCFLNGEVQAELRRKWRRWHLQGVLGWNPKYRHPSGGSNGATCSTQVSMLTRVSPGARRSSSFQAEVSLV

[2] = biological target: T2, Vasoactive intestinal polypeptide receptor 2 (Homo sapiens, UniProt P41587); test: Agonist activity at human VIPR2 expressed in CHOK1 cells assessed as intracellular cAMP accumulation after 60 mins by PathHunter assay; assay type: functional, cell-based
T2 sequence (P41587 whole entry): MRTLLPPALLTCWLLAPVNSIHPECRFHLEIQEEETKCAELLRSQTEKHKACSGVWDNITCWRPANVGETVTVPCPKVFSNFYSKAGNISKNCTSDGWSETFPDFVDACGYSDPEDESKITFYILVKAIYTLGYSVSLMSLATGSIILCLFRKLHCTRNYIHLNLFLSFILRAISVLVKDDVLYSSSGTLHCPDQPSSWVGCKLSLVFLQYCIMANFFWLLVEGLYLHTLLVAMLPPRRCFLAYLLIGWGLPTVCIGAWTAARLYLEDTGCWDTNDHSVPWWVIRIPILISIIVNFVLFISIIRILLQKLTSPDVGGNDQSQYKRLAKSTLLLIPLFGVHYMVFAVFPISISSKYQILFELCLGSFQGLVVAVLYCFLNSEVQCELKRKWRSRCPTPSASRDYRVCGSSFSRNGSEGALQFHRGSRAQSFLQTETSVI

Compound | EC50 [1] [nM] | EC50 [2] [nM]
CC[C@H](C)[C@H](NC(=O)[C@H](C)NC(=O)[C@H](CC(N)=O)NC(=O)CC(CC(C)C)NC(=O)[C@H](Cc1ccc(O)cc1)NC(=O)[C@H](CCCCN)NC(=O)[C@H](CCCCN)NC(=O)CC(NC(=O)[C@H](C)NC(=O)[C@H](CC(C)C)NC(=O)[C@H](CCC(N)=O)NC(=O)CC(CCCCN)NC(=O)[C@H](CCCNC(=N)N)NC(=O)[C@H](CC(C)C)NC(=O)[C@H](CCCNC(=N)N)NC(=O)CC(NC(=O)[C@H](Cc1ccc(O)cc1)NC(=O)[C@H](CC(N)=O)NC(=O)[C@H](CC(=O)O)NC(=O)CC(NC(=O)[C@H](Cc1ccccc1)NC(=O)[C@@H](NC(=O)[C@H](C)NC(=O)CC(CC(=O)O)NC(=O)[C@@H](Cc1ccccc1)NC(=O)[C@@H](N)Cc1cnc[nH]1)C(C)C)C(C)O)C(C)O)C(C)C)C(=O)NC(CC(=O)N[C@@H](CC(N)=O)C(=O)O)CC(C)C (stereo partly drawn) | 912 | 609
CC[C@H](C)[C@H](NC(=O)[C@H](C)NC(=O)[C@H](CC(N)=O)NC(=O)CC(CC(C)C)NC(=O)[C@H](Cc1ccc(O)cc1)NC(=O)[C@H](CCCCN)NC(=O)[C@H](CCCCN)NC(=O)CC(NC(=O)[C@H](C)NC(=O)[C@H](CC(C)C)NC(=O)[C@H](CCC(N)=O)NC(=O)CC(CCCCN)NC(=O)[C@H](CCCNC(=N)N)NC(=O)[C@H](CC(C)C)NC(=O)[C@H](CCCNC(=N)N)NC(=O)CC(NC(=O)[C@H](Cc1ccc(O)cc1)NC(=O)CC(CC(N)=O)NC(=O)[C@H](CC(=O)O)NC(=O)[C@@H](NC(=O)[C@H](Cc1ccccc1)NC(=O)CC(NC(=O)[C@H](C)NC(=O)[C@H](CC(=O)O)NC(=O)[C@@H](Cc1ccccc1)NC(=O)[C@@H](N)Cc1cnc[nH]1)C(C)C)[C@@H](C)O)C(C)O)C(C)C)C(=O)NC(CC(=O)N[C@@H](CC(N)=O)C(=O)O)CC(C)C (stereo partly drawn) | > 1000 | 989
CC[C@H](C)[C@H](NC(=O)[C@H](C)NC(=O)[C@H](CC(N)=O)NC(=O)CC(CC(C)C)NC(=O)[C@H](Cc1ccc(O)cc1)NC(=O)[C@H](CCCCN)NC(=O)[C@H](CCCCN)NC(=O)CC(NC(=O)[C@H](C)NC(=O)[C@H](CC(C)C)NC(=O)[C@H](CCC(N)=O)NC(=O)CC(CCCCN)NC(=O)[C@H](CCCNC(=N)N)NC(=O)[C@H](CC(C)C)NC(=O)[C@H](CCCNC(=N)N)NC(=O)CC(NC(=O)[C@H](Cc1ccc(O)cc1)NC(=O)[C@H](CC(N)=O)NC(=O)[C@H](CC(=O)O)NC(=O)[C@@H](NC(=O)[C@H](Cc1ccccc1)NC(=O)[C@@H](NC(=O)[C@H](C)NC(=O)[C@H](CC(=O)O)NC(=O)[C@@H](Cc1ccccc1)NC(=O)[C@@H](N)Cc1cnc[nH]1)C(C)C)[C@@H](C)O)C(C)O)C(C)C)C(=O)NC(CC(=O)N[C@@H](CC(N)=O)C(=O)O)CC(C)C (stereo partly drawn) | 619000 | 344
CC[C@H](C)[C@H](NC(=O)[C@H](C)NC(=O)[C@H](CC(N)=O)NC(=O)CC(CC(C)C)NC(=O)[C@H](Cc1ccc(O)cc1)NC(=O)[C@H](CCCCN)NC(=O)[C@H](CCCCN)NC(=O)CC(NC(=O)[C@H](C)NC(=O)[C@H](CC(C)C)NC(=O)[C@H](CCC(N)=O)NC(=O)CC(CCCCN)NC(=O)[C@H](CCCNC(=N)N)NC(=O)[C@H](CC(C)C)NC(=O)[C@H](CCCNC(=N)N)NC(=O)CC(NC(=O)[C@H](Cc1ccc(O)cc1)NC(=O)[C@H](CC(N)=O)NC(=O)[C@H](CC(=O)O)NC(=O)[C@@H](NC(=O)[C@H](Cc1ccccc1)NC(=O)CC(NC(=O)[C@H](C)NC(=O)[C@H](CC(=O)O)NC(=O)[C@@H](Cc1ccccc1)NC(=O)[C@@H](N)Cc1cnc[nH]1)C(C)C)[C@@H](C)O)C(C)O)C(C)C)C(=O)NC(CC(=O)N[C@@H](CC(N)=O)C(=O)O)CC(C)C (stereo partly drawn) | 71.2 | 50.3
CC[C@H](C)[C@H](NC(=O)[C@H](C)NC(=O)[C@H](CC(N)=O)NC(=O)CC(CC(C)C)NC(=O)[C@H](Cc1ccc(O)cc1)NC(=O)[C@H](CCCCN)NC(=O)[C@H](CCCCN)NC(=O)CC(NC(=O)[C@H](C)NC(=O)[C@H](CC(C)C)NC(=O)[C@H](CCC(N)=O)NC(=O)CC(CCCCN)NC(=O)[C@H](CCCNC(=N)N)NC(=O)[C@H](CC(C)C)NC(=O)[C@H](CCCNC(=N)N)NC(=O)CC(NC(=O)[C@H](Cc1ccc(O)cc1)NC(=O)[C@H](CC(N)=O)NC(=O)[C@H](CC(=O)O)NC(=O)[C@@H](NC(=O)[C@H](Cc1ccccc1)NC(=O)[C@H]1CCC[C@@H]1NC(=O)[C@H](C)NC(=O)[C@H](CC(=O)O)NC(=O)[C@@H](Cc1ccccc1)NC(=O)[C@@H](N)Cc1cnc[nH]1)[C@@H](C)O)C(C)O)C(C)C)C(=O)NC(CC(=O)N[C@@H](CC(N)=O)C(=O)O)CC(C)C (stereo partly drawn) | 89.3 | > 1000
CC[C@H](C)[C@H](NC(=O)[C@H](CO)NC(=O)[C@H]1CCC[C@@H]1NC(=O)[C@H](CC(C)C)NC(=O)[C@H](Cc1ccc(O)cc1)NC(=O)[C@H]1CNC[C@@H]1NC(=O)[C@H](CCCCN)NC(=O)[C@H](C)NC(=O)[C@H](C)NC(=O)[C@H]1CCC[C@@H]1NC(=O)[C@H](CCC(N)=O)NC(=O)[C@H](CCCCN)NC(=O)[C@H](CCCNC(=N)N)NC(=O)[C@H](CC(C)C)NC(=O)[C@H](CCCNC(=N)N)NC(=O)[C@@H](NC(=O)[C@H](Cc1ccc(O)cc1)NC(=O)[C@H](CC(N)=O)NC(=O)[C@H](CC(=O)O)NC(=O)[C@@H](NC(=O)[C@H](Cc1ccccc1)NC(=O)[C@@H](NC(=O)[C@H](C)NC(=O)[C@H](CC(=O)O)NC(=O)[C@H](CO)NC(=O)[C@H](Cc1cnc[nH]1)NC(C)=O)C(C)C)[C@@H](C)O)[C@@H](C)O)C(=O)N[C@@H](CCCCN)C(=O)NC(CC(N)=O)CC(=O)N[C@@H](CCCCN)C(=O)N[C@@H](CCCNC(=N)N)C(=O)N[C@@H](Cc1ccc(O)cc1)C(=O)O (stereo partly drawn) (Ac-HSDAVFTDNYTRLRKQ[X1]AAK[X2]YL[X1]SIK[ξβ3hN]KRY-OH) | 0.195 | 0.0785
CC(=O)N[C@@H](Cc1cnc[nH]1)C(=O)N[C@@H](CO)C(=O)N[C@@H](CC(=O)O)C(=O)N[C@@H](C)C(=O)N[C@H](C(=O)N[C@@H](Cc1ccccc1)C(=O)N[C@H](C(=O)N[C@@H](CCC(=O)O)C(=O)N[C@@H](CC(N)=O)C(=O)N[C@@H](Cc1ccc(O)cc1)C(=O)N[C@H](C(=O)N[C@@H](CCCCN)C(=O)N[C@@H](CC(C)C)C(=O)N[C@@H](CCCNC(=N)N)C(=O)N[C@@H](CCCCN)C(=O)N[C@@H](CCC(N)=O)C(=O)N[C@@H](CC(C)C)C(=O)N[C@@H](C)C(=O)N[C@@H](C)C(=O)N[C@H]1CNC[C@@H]1C(=O)N[C@@H](CCCCN)C(=O)N[C@@H](Cc1ccc(O)cc1)C(=O)N[C@H]1CCC[C@@H]1C(=O)N[C@@H](CC(N)=O)C(=O)N[C@@H](CC(=O)O)C(=O)N[C@@H](CC(C)C)C(=O)NC(CCCCN)CC(=O)N[C@@H](CCCCN)C(=O)NCC(=O)NCCC(=O)N[C@H](C(=O)O)[C@@H](C)O)[C@@H](C)O)[C@@H](C)O)C(C)C (stereo partly drawn) (Ac-HSDAVFTENYTKLRKQLAA[X2]KY[X1]NDL[ξβ3hK]KG[βAla]T-OH) | > 1000 | 0.963
CC(=O)N[C@@H](Cc1cnc[nH]1)C(=O)N[C@@H](CO)C(=O)N[C@@H](CC(=O)O)C(=O)N[C@@H](C)C(=O)N[C@H](C(=O)N[C@@H](Cc1ccccc1)C(=O)N[C@H](C(=O)N[C@@H](CCC(=O)O)C(=O)N[C@@H](CC(N)=O)C(=O)N[C@@H](Cc1ccc(O)cc1)C(=O)N[C@H](C(=O)N[C@@H](CCCCN)C(=O)N[C@@H](CC(C)C)C(=O)N[C@@H](CCCNC(=N)N)C(=O)N[C@@H](CCCCN)C(=O)N[C@@H](CCC(N)=O)C(=O)N[C@@H](CC(C)C)C(=O)N[C@@H](C)C(=O)N[C@H]1CCC[C@@H]1C(=O)N[C@@H](CCCCN)C(=O)N[C@@H](CCCCN)C(=O)N[C@@H](Cc1ccc(O)cc1)C(=O)N[C@H]1CCC[C@@H]1C(=O)N[C@@H](CC(N)=O)C(=O)N[C@@H](CC(=O)O)C(=O)NC(CC(=O)N[C@@H](CCCCN)C(=O)N[C@@H](CCCCN)C(=O)NCC(=O)NCCC(=O)N[C@H](C(=O)O)[C@@H](C)O)CC(C)C)[C@@H](C)O)[C@@H](C)O)C(C)C (stereo partly drawn) (Ac-HSDAVFTENYTKLRKQLA[X1]KKY[X1]ND[ξβ3hL]KKG[βAla]T-OH) | 9.09 | 104
CC(=O)N[C@@H](Cc1cnc[nH]1)C(=O)N[C@@H](CO)C(=O)N[C@@H](CC(=O)O)C(=O)N[C@@H](C)C(=O)N[C@H](C(=O)N[C@@H](Cc1ccccc1)C(=O)N[C@H](C(=O)N[C@@H](CCC(=O)O)C(=O)N[C@@H](CC(N)=O)C(=O)N[C@@H](Cc1ccc(O)cc1)C(=O)N[C@H](C(=O)N[C@@H](CCCCN)C(=O)N[C@@H](CC(C)C)C(=O)N[C@@H](CCCNC(=N)N)C(=O)N[C@@H](CCCCN)C(=O)N[C@@H](CCC(N)=O)C(=O)N[C@H]1CCC[C@@H]1C(=O)N[C@@H](C)C(=O)N[C@@H](C)C(=O)N[C@@H](CCCCN)C(=O)N[C@H]1CNC[C@@H]1C(=O)N[C@@H](Cc1ccc(O)cc1)C(=O)N[C@@H](CC(C)C)C(=O)N[C@H]1CCC[C@@H]1C(=O)N[C@@H](CC(=O)O)C(=O)N[C@@H](CC(C)C)C(=O)N[C@@H](CCCCN)C(=O)NC(CCCCN)CC(=O)NCC(=O)NCC(=O)N[C@H](C(=O)O)[C@@H](C)O)[C@@H](C)O)[C@@H](C)O)C(C)C (stereo partly drawn) (Ac-HSDAVFTENYTKLRKQ[X1]AAK[X2]YL[X1]DLK[ξβ3hK]GGT-OH) | 9.52 | 0.422
